Data: patent US4515708A, “Corrosion inhibitors” (Exxon Research & Engineering Co., priority 1982, dated 1985)
Like-named read-outs stand apart in the source and are kept apart here.

Legend:
[1] = Solubility Test (35 wt% solution in isopropylalcohol shaken with water, brine or heptane); format: physicochemical
Protocol: The active material under test was made up into a 35 wt% solution in isopropylalcohol (IPA). 0.3 ml of this solution was shaken with 10 ml of each of the liquids in which solubility is to be tested: water, 5 wt% NaCl solution (brine) and heptane. The mixture was observed after 30 minutes and 24 hours.

[2] = Film persistency corrosion test; conditions: CO2 + H2S, 24 h, 70° C.
Protocol: […] A test fluid made up of equal proportions of 3 wt% brine and Mentor 28 was used, saturated with CO2 and containing 100 ppm H2 S as corrosives. Coupons were used as described for the previous corrosion test. A coupon was first immersed in test fluid containing corrosives and the inhibitor under test for 1 hour, then rinsed for 1 hour in a similar test fluid containing no inhibitor and finally transferred to a further test fluid again containing no inhibitor in which the dynamic wheel test was carried out at 70° C. for 24 hours.

[3] = Corrosion Test 4 (dynamic wheel test; 3 wt% brine + Mentor 28; H2S); conditions: 24 h, 70° C.
Protocol: (§1) For each compound three mild steel coupons (approximately 100 mm×12 mm×1.5 mm) were tested at each concentration. Each was contacted in a 250 ml bottle with 200 ml of a test fluid either saturated with a carbon dioxide at 20° C. or containing 100 ppm hydrogen sulphide or having both CO2 and H2 S present in those amounts. The test fluid was treated with a 30% aqueous solution of the compound under test at 2, 10, 50 and 250 ppm except where indicated to the contrary. The coupon was subjected to a dynamic wheel test in which the bottle was mounted radially on the periphery of 650 mm diameter wheel which was rotated at about 40 rpm for 24 hours at 70° C. The weight loss was obtained, and also measured in a control experiment where no inhibitor was present. From this the % protection was calculated as % reduction in weight loss.
(§2) Test fluid: 100 ml 3 wt% brine+100 ml Mentor 28
Corrosives: 100 ppm H2 S (prior nitrogen purge)

[4] = Emulsion Test (3 wt% brine / heptane); format: physicochemical; conditions: for Time to break emulsion: 1 ml of 35 wt% IPA solution, 50 ml 3 wt% brine, 50 ml heptane; for Appearance after 30 mins, hydrocarbon: hydrocarbon layer; for Appearance after 30 mins, hydrocarbon / Appearance after 30 mins, water: 50 ml 3 wt% brine/50 ml heptane; for Appearance after 30 mins, water: water layer
Protocol: 1 ml of the solutions used for Test A was shaken with 50 ml of 3 wt% brine and 50 ml of heptane for 1 minute in a 150 ml bottle. The emulsion was observed, and the time noted for the emulsion to break and form a clean interface with clear liquid layers. If at 30 minutes this had not occurred, the appearance was recorded together with the thickness of any persisting emulsion.

[5] = Corrosion Test 2 (dynamic wheel test; 3 wt% brine; CO2 + H2S); conditions: 24 h, 70° C.
Protocol: as §1
Test Fluid: 200 ml 3 wt% brine
(§3) Corrosives: Saturated CO2 +100 ppm H2 S

[6] = Corrosion Test 1 (dynamic wheel test; 3 wt% brine/Mentor 28; CO2 + H2S); conditions: 24 h, 70° C., 30% solution
Protocol: as §1
Test fluid: 100 ml 3 wt% brine/100 ml Mentor 28 (Mentor®28 is a depolarised kerosene available from Exxon Chemical Company)
as §3

[7] = Corrosion Test 3 (dynamic wheel test; 3 wt% brine + Mentor 28; CO2 only); conditions: 24 h, 70° C.
Protocol: as §1, §2
Corrosives: Saturated CO2 only

[8] = 0.3 ml of 35 wt% IPA solution in 10 ml heptane, 30 minutes and 24 hours
[9] = 0.3 ml of 35 wt% IPA solution in 10 ml water, observed after 30 minutes and 24 hours
[10] = 0.3 ml of 35 wt% IPA solution in 10 ml 5 wt% NaCl solution, 30 minutes and 24 hours

Row | Structure (SMILES) | % Protection ([2]; 500 ppm) | % Protection ([2]; 1000 ppm) | % Protection ([2]; 5000 ppm) | % Protection ([3]; 2 ppm) | % Protection ([3]; 10 ppm) | % Protection ([3]; 50 ppm) | % Protection ([3]; 250 ppm) | Time to break emulsion [4] | Appearance after 30 mins, hydrocarbon [4] | Appearance after 30 mins, water [4] | % Protection ([5]; 2 ppm) | % Protection ([5]; 10 ppm) | % Protection ([5]; 50 ppm) | % Protection ([5]; 250 ppm) | % Protection ([6]; 2 ppm) | % Protection ([6]; 10 ppm) | % Protection ([6]; 50 ppm) | % Protection ([6]; 250 ppm) | SOLUBILITY IN: Water [1, 9] | % Protection ([7]; 2 ppm) | other results
1 | CCCCCCNCCc1ccccn1 [Example 1] | 18% | 25% | 17% | 0% | 22% | 55% | 55% | 30 min | clear | clear | 13% | 57% | 83% | 93% | 15% | 73% | 79% | 91% | – | – | SOLUBILITY IN: Brine [1]: S; SOLUBILITY IN: Heptane [1]: S; SOLUBILITY IN: Water [1]: S
2 | CCCCCCCCCCCCNCCc1ccccn1 [Example 4] | 14% | 14% | 14% | 20% | 42% | 50% | 66% | > 30 min | hazy | hazy | 24% | 94% | 95% | 96% | 21% | 73% | 93% | 94% | S | 0% | SOLUBILITY IN: Heptane [1, 8]: S; % Protection ([7]; 10 ppm): 0%; % Protection ([7]; 50 ppm): 7%; % Protection ([7]; 250 ppm): 61%
3 | CCCCCCCCCCCCCCCCCCNCCc1ccccn1 [Example 7] | 13% | 10% | 19% | – | – | – | – | > 30 min | emulsified | clear | 81% | 89% | 99% | 99% | 13% | 52% | 87% | 95% | S | 2% | SOLUBILITY IN: Heptane [1, 8]: S; % Protection ([7]; 10 ppm): 22%; % Protection ([7]; 50 ppm): 48%; % Protection ([7]; 250 ppm): 67%
4 | NCCNCCNCCc1ccccn1 [Example 15] | 13% | 11% | 17% | – | – | – | – | 10 min | clear | clear | 22% | 63% | 81% | 87% | 32% | 72% | 80% | 87% | S | – | SOLUBILITY IN: Brine [1, 10]: S
5 | NCCNCCNCCc1ccncc1 [Example 34] | – | – | – | 20% | 45% | 62% | 67% | 1 min | clear | clear | 18% | 26% | 48% | 69% | 22% | 50% | 66% | 80% | S | 6% | SOLUBILITY IN: Brine [1, 10]: S; % Protection ([7]; 10 ppm): 11%; % Protection ([7]; 50 ppm): 13%; % Protection ([7]; 250 ppm): 18%
6 | NCCNCCNCCNCCc1ccncc1 [Example 35] | 19% | 18% | 20% | – | – | – | – | 1 min | clear | clear | – | – | – | – | – | – | – | – | S | – | SOLUBILITY IN: Brine [1, 10]: S
